“Also recorded” adds a separate entry of the source.
Assays:
PC12 cells = assay: PC12 cell differentiation (neurite outgrowth); format: cell-based, rat; details: 3 days, peptoids 2 ng/ml to 50 μg/ml, reduced serum (0.5% FBS and 1% HS); compared with NGF 100 ng/ml
Protocol: PC 12 cell differentiation was measured by plating cells onto collagen-coated 24-wells plates. NGF (100 ng/ml) or the small chemicals at different concentrations were added and the percentage of cells with neurite processes greater than two cell bodies in length were counted after relevant treatment. For each experiment at least 300 cells were randomly measured (Burstein and Greene, 1978).
PC12 cells were maintained at 37° C. in DMEM supplemented with 2.5% FBS, 15% of Horse serum (HS) and penicillin/streptomycin in a humidified 5% CO2 incubator. The cells were grown on 60- and 100-mm tissue culture dishes (Becton Dickinson).
PC 12 cells were cultured for 3 days in the presence of the peptoids (from 2 ng/ml to 50 μg/ml) under reduced serum conditions (0.5% FBS and 1% HS).

[1] = Serum transaminases levels in treated EAE mice; format: in vivo; details: daily intraperitoneal treatment, N35-4-17C at the higher concentrations
Protocol: (§1) The agonist molecules selected for the animal studies, N35-4-8C, N6-4-17C and N35-4-17C, were prepared in water with 5% DMSO. Animals were treated with the agonist molecule (25, 50 and 100 mg/kg) or placebo (water+5% DMSO) through daily intraperitoneal injection starting after immunization. At the end of the study, mice were anesthetized and perfused intracardially with 4% of paraformaldehyde in 0.1M phosphate buffer (pH 7.6). Brains, spinal cords and spleens were dissected and either fixed or frozen until use. Serum was obtained from all animals included in the study, and transaminases levels were measured.

RN22 cells = assay: RN22 cell survival under CuSO4 stress (MTT); format: cell-based, rat; details: CuSO4 150 μM, 24 h, peptoids 1 ng/ml-10 μg/ml; compared with NGF 100 ng/ml
Protocol: The library was also tested to assess their capacity to promote cell survival of myelin producing cells. To delineate p75 signalling independent of TrkA, we used a rat schwannoma cell line (RN22) expressing p75, but not TrkA, (Gentry et al., 2000).
The rat schawnnoma cell line RN22 was cultured in 5% CO2 at 37° C. in Dulbecco's modified Eagle's medium (DMEM) with 10% fetal bovine serum (FBS) and penicillin/streptomycin.
RN22 cells were plated at 20,000 cells/well on a 24-well plate in DMEM alone and after allowing the cells to adhere for 3 days, cupper sulphate (CuSO4) (150 μM) was added with or without NGF (100 ng/ml) or the peptoids N35-4-8C, N6-4-17C and N35-4-17C at different concentrations (1 ng/ml-10 μg/ml) to generate stress and cell death. After 24 h cell viability was studied by determining the amount of yellow MTT (Sigma) that was reduced to insoluble purple formazan. After removing the medium, the water-insoluble formazan was solubilised with DMSO (Sigma), and the dissolved material was measured spectrophotometrically at a wavelength of 570 nm, subtracting the background at 650 nm (Frade, 2005).

C57BL/6 EAE mice = assay: Experimental autoimmune encephalomyelitis (EAE) clinical score; format: in vivo; details: daily intraperitoneal
Protocol: Trials were approved by the Parc Cientific de Barcelona Committee on Animal Care. Female C57BL/6 mice from Harlan (8-12 weeks old) were immunized subcutaneously in both hind pads with 300 μg of myelin oligodendrocyte glycoprotein (MOG) peptide 35-55 (Spikem, Firenze) emulsified with 50 μg of Mycobacterium tuberculosis (H37Ra strain; Difco, Detroit, Mich.) in incomplete Freund's adjuvant (IFA) as previously described (Adams et al. 2007). Mice were intraperitoneally injected with Pertussis toxin (Sigma)(500 ng) at the time of immunization and 2 days later. Animals were weighted and inspected for clinical signs of disease on a daily basis by a blinded observer. Disease severity of EAE was assessed according to the following scale: 0=normal; 0.5=mild limp tail; 1=limp tail; 2=mild parapesis of the hind limbs, unsteady gait; 3=moderate parapesis, voluntary movements still possible; 4=paraplegia or tetraparesis; 5=moribund state. Data shown for the clinical studies are representative of two independent experiments performed with the indicated number of animals (Moreno et al., 2006).
as §1
In order to evaluate the effects of the NGF-like peptoids “in vivo”, we studied the effect of the NGF-mimetic peptoids in the animal model of MS. C57BL/6 mice immunized with MOG35-55 peptide were treated daily with N35-4-8C, N6-4-17C and N35-4-17C intraperitoneally from day 0 to day 25 at a different concentrations of the compound. N35-4-8C was tested at 3 different concentrations selected in base to previous experiments using agonist molecules in animal models: 25 mg/kg, 50 mg/kg and 100 mg/kg. […] N35-4-17C was also tested at the same concentrations. […] Moreover, the treatment had higher clinical scores with a clear worsening in the progression of the disease (FIG. 4C).

TrkA = target: T1, TrkA (Rattus norvegicus, UniProt P35739); assay: TrkA phosphorylation in PC12 cells (western blot); format: cell-based; details: 100 ng/ml, time course
T1 construct: we analyzed their capacity to induce TrkA phosphorylation in PC12 cells; endogenous in cells; host or cells: PC12 cells
Protocol: Activation of TrkA is the first event in the signalling cascade leading to differentiation and survival of NGF responsive neurons and PC12 cells (Greene and Tischler, 1976; Chao, 2003; Huang and Reichardt, 2003). To evaluate whether the neurotrophic activity of NGF-like peptoids was mediated by the interaction with TrkA receptor, we analyzed their capacity to induce TrkA phosphorylation in PC12 cells. The activity of peptoids was tested in the range of concentrations that were effective on PC12 cells differentiation.
Western Blot Analysis. Subconfluent cells were grown overnight in medium containing 2% FBS and 1% HS and stimulated with 100 ng/ml NGF or the NGF-like small chemicals for the indicated time points. Cells were then washed with cold phosphate-buffered saline (PBS) and briefly sonicated in SDS sample buffer (containing β-mercaptoethanol and 2 mM PMSF). Lysates (200 μg of total proteins) were separated on SDS-PAGE, and transferred to nitrocellulose (Whatman, Dassel, Germany). […]

SAPK/JNK = SAPK/JNK phosphorylation in RN22 cells (western blot); format: cell-based, rat; details: 100 ng/ml
Protocol: (§2) Western Blot Analysis. Subconfluent cells were grown overnight in medium containing 2% FBS and 1% HS and stimulated with 100 ng/ml NGF or the NGF-like small chemicals for the indicated time points. Cells were then washed with cold phosphate-buffered saline (PBS) and briefly sonicated in SDS sample buffer (containing β-mercaptoethanol and 2 mM PMSF). Lysates (200 μg of total proteins) were separated on SDS-PAGE, and transferred to nitrocellulose (Whatman, Dassel, Germany). After blocking with 5% nonfat milk in TBST buffer (10 mM Tris pH 7.5; 150 mM NaCl/0.2% Tween 20), blots were probed overnight at 4° C. with anti-p-TrkA (Tyr 490) antibody (1:1000), anti TrkA antibody (1:1000), anti-p-IκBα (Ser 32/36)(5A5) mouse antibody (1/1000), anti IκBα (L35A5) mouse antibody (1:1000), anti-p-SAPK/JNK (Thr183/Tyr185) antibody (1:1000) or anti-SAPK/JNK antibody (1/1000)(all of them from Cell Signaling), followed by incubation with HRP-conjugated IgG (Jackson ImmunoResearch) for 1 h at room temperature (RT). Detection of phosphorylated species was performed by using the enhanced chemiluminescence (ECL) system (GE Healthcare Bio-Sciences, Piscataway, N.J.).
In several neuronal systems, JNK activation has been causally linked with the induction of programmed cell death (Bhakar et al., 2003). […]

IκBα = IκBα phosphorylation / NF-κB pathway activation in PC12 and RN22 cells (western blot); format: cell-based, rat; details: 100 ng/ml
Protocol: as §2
To investigate whether our NGF-like small chemicals activate p75 we analyzed the activation of the NF-κB pathway (Bonizzi G, Karin M. 2004) and the SAPK/JNK pathway (cell death) in PC12 and RN22 cell lines. […]

T1 sequence (P35739 33-799): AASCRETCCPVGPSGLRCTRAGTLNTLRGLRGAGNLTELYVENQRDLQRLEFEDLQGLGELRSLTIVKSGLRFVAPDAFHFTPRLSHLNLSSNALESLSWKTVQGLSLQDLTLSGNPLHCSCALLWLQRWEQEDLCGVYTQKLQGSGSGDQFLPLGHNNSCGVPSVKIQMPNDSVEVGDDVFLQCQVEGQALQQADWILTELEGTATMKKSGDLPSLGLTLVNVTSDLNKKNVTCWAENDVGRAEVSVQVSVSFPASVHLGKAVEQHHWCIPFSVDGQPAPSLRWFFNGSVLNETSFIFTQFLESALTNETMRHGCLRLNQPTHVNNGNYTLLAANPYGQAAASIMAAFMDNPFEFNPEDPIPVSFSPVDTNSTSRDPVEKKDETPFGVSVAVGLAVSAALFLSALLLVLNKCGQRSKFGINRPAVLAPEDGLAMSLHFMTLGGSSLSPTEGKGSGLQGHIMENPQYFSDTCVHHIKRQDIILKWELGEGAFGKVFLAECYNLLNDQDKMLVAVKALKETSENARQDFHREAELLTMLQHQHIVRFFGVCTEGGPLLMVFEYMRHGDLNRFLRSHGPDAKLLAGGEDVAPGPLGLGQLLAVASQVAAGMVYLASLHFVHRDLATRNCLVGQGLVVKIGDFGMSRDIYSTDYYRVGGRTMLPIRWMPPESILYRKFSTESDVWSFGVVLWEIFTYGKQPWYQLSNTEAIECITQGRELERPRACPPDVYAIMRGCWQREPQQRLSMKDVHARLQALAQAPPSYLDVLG

Compound | differentiation of PC12 cells (PC12 cells) | transaminases levels in serum [1] | survival of RN22 cells (cell viability, MTT) (RN22 cells) | EAE clinical severity (C57BL/6 EAE mice; 25 mg/kg, day 0 to day 25) | EAE clinical symptoms (C57BL/6 EAE mice; higher concentrations (50 and 100 mg/kg)) | time of maximal TrkA phosphorylation (TrkA) | activation of the JNK pathway (phosphorylation of SAPK/JNK) (SAPK/JNK) | time after addition at which p-IκBα levels were increased (IκBα) | EAE clinical severity (C57BL/6 EAE mice; any of the concentrations tested (25, 50, 100 mg/kg), 26 days observation)
CC(C)CCN(CC(=O)N(CCc1ccc(S(N)(=O)=O)cc1)CC(N)=O)C(=O)CNCCc1ccccc1F [N35-4-17C, [N-(2-(2′-Fluorophenyl)ethyl)glycyl]-[N-(3-methylbutyl)glycyl]-N-[2-(4′-sulfamoylphenyl)ethyl]glycinamide] | induce the differentiation of PC12 cells at different concentrations to an extent substantially comparable with that induce by NGF | elevated transaminase levels | promote survival of RN22 cells | prevents significantly the development of clinical symptoms in EAE | toxic effect worsening the development of the clinical symptoms | – | – | – | –
NGF: homodimeric protein from the neurotrophin family; used as positive control at 100 ng/ml | – | – | – | – | – | 30 min | obvious | ≤ 5 min | –
CC(C)CCN(CC(=O)N(CCc1ccc(S(N)(=O)=O)cc1)CC(N)=O)C(=O)CNCCN1CCCC1 [N6-4-17C, [N-(2-(1-Pyrrolidinyl)ethyl)glycyl]-[N-(3-methylbutyl)glycyl]-N-[2-(4′-sulfamoylphenyl)ethyl]glycinamide] | induce the differentiation of PC12 cells at different concentrations to an extent substantially comparable with that induce by NGF | elevated transaminases levels | promote survival of RN22 cells | – | – | – | – | – | not effective in reducing the clinical severity of EAE; also recorded: no effects in EAE
